Test results: US20260234207A1, “Keratin YK93-8, and Preparation Method Therefor, Pharmaceutical Composition Thereof and Use Thereof” (INSTITUTE OF MATERIA MEDICA, CHINESE ACADEMY OF MEDICAL …, priority 2022, published 2026)
Counter-ions that a name gives are not always drawn. Like-named read-outs stand apart in the source and are kept apart here.

Assays:
EL-4 lymphoma = tested on: EL-4 lymphoma
Procedure: (§1) • Animals: Male C57BL/6J mice • Drugs: Cyclophosphamide for injection (CTX), YK93-8 • Instruments: electronic balance, Five classified blood cell analyser • Experiment grouping: • Normal control group; • Positive control group: cyclophosphamide (100 mg/kg); • Protein YK93-8, (2 g/kg) group. • Method:
Subcutaneous inoculation of EL-4 cell suspension to replicate a mouse lymphoma model: The EL-4 tumor tissue was ground into a suspension using a glass homogenizer, the tumor suspension was aspirated with a syringe, the number of live cells was calculated, the cell concentration was adjusted to 2.0*10^6/ml with physiological saline, and then the suspension was injected into the left armpit of mice with 0.2 ml/mouse. On the next day, mice were randomly divided into a normal control group, a cyclophosphamide (100 mg/kg) group, and a YK93-8 (2 g/kg) group. Cyclophosphamide was injected intraperitoneally for single time, mice in the YK93-8 (2 g/kg) group were orally administered by gavage daily for 13 consecutive days, while mice in the normal control group were administered orally with an equal volume of sodium carboxymethyl cellulose. On the day of treatment, weight was measured, 20 μl of blood was obtained from the orbital blood and the routine blood analysis was performed. The tumor blocks were stripped, weighed and photographed, and the tumor suppression rate was calculated.
(§2) The tumor suppression rate [(The average weight of the tumor in the normal control group—the average weight of the tumor in the experimental group)/The average weight of the tumor in the normal control group×100%] and average value, standard deviation and standard errors of tumor weight were calculated.

B16F10 melanoma = tested on: B16F10 melanoma
Procedure: as §1, with “female” for “Male”, “mice;” for “mice”, “cyclophosphamide group” for “cyclophosphamide”
Subcutaneous inoculation of B16F10 cell suspension to replicate a mouse melanoma model: Under sterile conditions, the tumor block was removed, ground into tumor fluid, the concentration was adjusted with physiological saline to 2.58×10^6/ml, and 0.2 ml was taken to evenly inoculate subcutaneously on the armpit back of mice. On the next day, the animals were randomly grouped and administration began (recorded as Day 0). CTX (100 mg/kg) was administered once a week, YK-93-8 (2 g/kg) was administered daily, and mice in the normal control group were orally administered an equal volume of sodium carboxymethyl cellulose. On the day of treatment, weight was measured, 20 μL of blood was obtained by taking blood from the eye socket and the blood routine analysis was performed, the tumor block was peeled off, weighed and photographed, and the tumor suppression rate was calculated.
as §2

Lewis lung cancer = tested on: Lewis lung cancer
Procedure: Subcutaneous inoculation of Lewis cell suspension to replicate mouse Lewis lung cancer model: The Lewis tumor tissue was ground into a suspension with a glass homogenizer, the tumor suspension was aspirated with a syringe, the number of live cells was calculated, the concentration of the cells was adjusted to 2.6*10^6/ml with physiological saline, and then the suspension was injected to the left armpit of the mouse with 0.2 ml/mouse. On the next day, the mice were randomly divided into normal control group, cyclophosphamide (100 mg/kg) group, and YK93-8 (0.5 g/kg) group. Cyclophosphamide was injected intraperitoneally for single time, mice in YK93-8 group were given intragastric administration every day for 10 consecutive days, mice in the normal control group were orally given the equal volume of sodium carboxymethyl cellulose. On the day of the treatment, the weight was measured, 20 μl of blood was obtained from the orbital blood and the routine blood analysis was performed. The tumor blocks were stripped, weighed and photographed, and the tumor suppression rate was calculated.
as §2, with “group×100%] and the average value,” for “group×100%] and average value,”

[1] = tested on: mouse prostatic hyperplasia model; assay: Pharmacodynamic test on mouse prostatic hyperplasia model (propionate testosterone, androgen loading); conditions: for Average weight / wet weight of the prostate: 30 days of administration; for prostate index: 30 days, wet weight of the prostate (mg)/body weight (g)
Procedure: Preparation of experimental animals: The experimental animals were adapted to the experimental environment (temperature 22° C.±2° C., relative humidity 50%±2%) for 1 day.
Subcutaneous injection of propionate testosterone to replicate mice prostatic hyperplasia model: Mice were randomly grouped 10 in each group before the model being established. Propionate testosterone (0.01 mg/kg) in soybean oil was injected subcutaneously, once a day for 30 consecutive days. Mice in the normal control group were injected subcutaneously with an equal volume of sodium carboxymethyl cellulose. […] Mice were weighed on the next day. After 30 days of administration, mice were weighed, executed. The prostate was excised through a median incision in the lower abdomen, the wet weight was weighed, and the prostate index was calculated by the wet weight of the prostate (mg)/body weight of the mouse (g).
The average value, standard deviation and standard error of the prostate index in each group were calculated. The data from the groups were compared with each other by T.TEST, and P<0.05 was considered as a significant difference.

[2] = tested on: acetic acid-induced writhing of mice; assay: Pharmacodynamic test on mouse pain model (acetic acid-induced writhing); type: in vivo, Male Kunming mice; conditions: 1% acetic acid intraperitoneally, writhing within 15 minutes
Procedure: • Animals: Male Kunming mice; • Drugs: Tramadol Hydrochloride Sustained Release Tablets, Glacial acetic acid, YK93-8; • Instruments: electronic balance, timer • Experiment grouping: • Normal control group; • Positive control group: Tramadol Hydrochloride group; • Protein YK93-8, (0.5 g/kg) group. • Method:
Mice in the YK93-8 (0.5 g/kg) group were administered by gavage, while mice in the model group were given an equal volume of CMC-Na once a day for 7 consecutive days. 30 minutes after the last administration, 1% acetic acid was administered intraperitoneally, and the writhing times of mice within 15 minutes was recorded, and the inhibition rate of drug-induced writhing reaction was calculated. The observation criteria were concave abdominal cavity, extended hind limbs, and raised buttocks.
The inhibition rate was calculated by (Mean number of writhing reactions in the normal control group−Mean number of writhing reactions in the treatment group)/Mean number of writhing reactions in the normal control group *100%.

[3] = tested on: lactation of pregnant mice; assay: Pharmacodynamic test on lactation of pregnant mice; type: in vivo, female Kunming pregnant mice; conditions: 2 g/kg by gavage, 13 days
Procedure: • Animals: female Kunming pregnant mice, weight: 30-50 grams • Drug: YK93-8 • Instruments: electronic balance • Experiment grouping: • Normal control group; • Protein YK93-8, (2 g/kg) group. • Method:
The parturition date of each pregnant mouse was recorded and the mice were randomly divided into normal control group and YK 93-8 group based on the parturition date.
YK93-8 (2 g/kg) was administered by gavage, and the weight and weight gain of the young mice were recorded daily. After 13 days of administration, the female mouse was euthanized using cervical dislocation method, and […] of blood samples were collected from the eye socket, left standing at room temperature for 1-2 hours, centrifuged 1000 g for 20 minutes. The content of prolactin in serum was measured.
The average daily weight gain of young mice (lactation yield of female mice) and serum prolactin content of female mice in each group were calculated.

[4] = 0.1 g/kg intraperitoneally, single time
[5] = 100 mg/kg intraperitoneally, single time, P<0.05
[6] = 2 g/kg by gavage daily for 13 days
[7] = 0.5 g/kg intragastric every day for 10 days

O=P1(N(CCCl)CCCl)NCCCO1 (stereo not drawn) [cyclophosphamide, Cyclophosphamide]
Tumor suppression (%) (EL-4 lymphoma; [4]): 95.67%
Tumor weight (EL-4 lymphoma; [4]): 0.12 ± 0.03 g
leukocytes (blood routine test) (EL-4 lymphoma; [5]): significantly reduced
lymphocytes (blood routine test) (EL-4 lymphoma; [5]): significantly reduced
monocytes (blood routine test) (EL-4 lymphoma; [5]): significantly reduced
neutrophils (blood routine test) (EL-4 lymphoma; [5]): significantly reduced
Change of weight (g) Before administration (B16F10 melanoma; 0.1 g/kg group): 18.97 ± 0.55 g
Change of weight (g) After administration (B16F10 melanoma; 0.1 g/kg once a week): 19.07 ± 1.46 g
Tumor suppression (%) (B16F10 melanoma; 0.1 g/kg once a week): 85.82%
Tumor weight (B16F10 melanoma; 0.1 g/kg once a week): 0.26 ± 0.11 g
Change of weight (g) Before administration (Lewis lung cancer; 0.1 g/kg group): 17.60 ± 0.59 g
Change of weight (g) After administration (Lewis lung cancer; [4]): 19.95 ± 0.77 g
Tumor suppression (%) (Lewis lung cancer; [4]): 95.35%
Tumor weight (Lewis lung cancer; [4]): 0.14 ± 0.09 g

CC(C)(C)NC(=O)[C@H]1CC[C@H]2[C@@H]3CC[C@H]4NC(=O)C=C[C@]4(C)[C@H]3CC[C@]12C [finasteride]
Average weight ([1]; 1 mg/kg orally): 43.5 ± 3.5 g
wet weight of the prostate ([1]; 1 mg/kg orally): 31.8 ± 4.8 mg
prostate index ([1]; 1 mg/kg orally): 0.75 ± 0.12
Average weight ([1]; 3 mg/kg orally): 40.7 ± 3.1 g
wet weight of the prostate ([1]; 3 mg/kg orally): 29.2 ± 1.4 mg
prostate index ([1]; 3 mg/kg orally): 0.72 ± 0.08

COc1cccc(C2(O)CCCCC2CN(C)C)c1 (stereo not drawn) [Tramadol Hydrochloride]
Number of writhing ([2]; 50 mg/kg): 0.0 ± 0.00

B1: YK93-8: keratin with the amino acid sequence shown in SEQ ID NO.1, expressed in Escherichia coli, band around 63 KD; protein of Example 3 (protein, listed as Manis pentadactyla)
chain: MSCRSYRVSSGRQIGNFSSCSAVMPQSLSRFRASSVSCRSGPGFRGLGGFGSRSVIAFGSCPPRMAAVGPRPIRCGVGFSAGSGLAFGLGDSCGAGLGFGTGSGLGYGFGGPGFGYRIGGVGVPAAPSITAVTVNQSLLTPLNLEIDPNAQRVKRDEKEQIKTLNNKFASFIDKVRFLEQQNKLLETKWNFLQDQKGVQSNLEPLFENYVANLRRQLDIVSSDQARLETERNNMQDVLEGFKKKYEEEVVFRANAENEFVALKKDVDAAFLNKSDLEANVDALIQEIDFLKNLYMAEIQLLQSHISDTSVIVKMDNSRDLNFDGIIAEVKAQYEEVARRSRADAEAWYQTKYEEMRMTAGQHSDNLRNTRDEINELTRVIQRLKAEIEHTKAQRAKLEAAIAEAEQQGEAALNDAKCKLADLEAALQQAKQDMARQLREYQELMNIKLALDIEIATYRRLLEGEEIRICEGVGPVNISVSSSRGGVVCGPEPLLTSSTLSRGGVTFSGGSSIRSSGACGLSLGGSRVVAAGGDVLSAGSRGGSVLVGDACAPSIPCPLPTDGGFSSCSGGRSSLGSSVRFVSTTTSRRTKY
weight gain of young mice (lactation yield of female mice) [3]: no significant effect
serum prolactin content in female mouse ([3]; vs normal control group): to some extent increase
Tumor suppression (%) (EL-4 lymphoma; [6]): 13.18%
Tumor weight (EL-4 lymphoma; [6]): 2.44 ± 0.23 g
Number of writhing ([2]; 0.5 g/kg by gavage once a day for 7 days): 13.76 ± 11.84
Change of weight (g) After administration (B16F10 melanoma; 2 g/kg daily): 19.78 ± 0.76 g
Tumor suppression (%) (B16F10 melanoma; 2 g/kg daily): 50.18%
Tumor weight (B16F10 melanoma; 2 g/kg daily): 0.90 ± 0.41 g
Change of weight (g) Before administration (B16F10 melanoma; 2 g/kg group): 19.20 ± 0.54 g
wet weight of the prostate ([1]; 0.5 g/kg orally): 44.3 ± 9.3 mg
prostate index ([1]; 0.5 g/kg orally): 1.12 ± 0.20
Change of weight (g) Before administration (Lewis lung cancer; 0.5 g/kg group): 17.91 ± 0.26 g
Change of weight (g) After administration (Lewis lung cancer; [7]): 21.93 ± 0.93 g
Tumor suppression (%) (Lewis lung cancer; [7]): 27.83%
Tumor weight (Lewis lung cancer; [7]): 2.16 ± 0.47 g
